Measured values: ChEMBL document CHEMBL4364346, “Structure optimization of a new class of PPARγ antagonists” (Bioorg Med Chem, 2019)
≈ marks a conversion by molar mass, not a printed value.

Key:
[1] = target: T1, Peroxisome proliferator-activated receptor gamma (Homo sapiens, UniProt P37231); assay: Antagonist actvity in pFA-GAL4-DBD fused PPARgamma LBD (unknown origin) transfected in HEK293T cells assessed as inhibition of rosiglitazone-induced PPARgamma transactivation incubated for 24 hrs by luciferase reporter gene assay; assay type: cell-based
T1 sequence (P37231 whole entry): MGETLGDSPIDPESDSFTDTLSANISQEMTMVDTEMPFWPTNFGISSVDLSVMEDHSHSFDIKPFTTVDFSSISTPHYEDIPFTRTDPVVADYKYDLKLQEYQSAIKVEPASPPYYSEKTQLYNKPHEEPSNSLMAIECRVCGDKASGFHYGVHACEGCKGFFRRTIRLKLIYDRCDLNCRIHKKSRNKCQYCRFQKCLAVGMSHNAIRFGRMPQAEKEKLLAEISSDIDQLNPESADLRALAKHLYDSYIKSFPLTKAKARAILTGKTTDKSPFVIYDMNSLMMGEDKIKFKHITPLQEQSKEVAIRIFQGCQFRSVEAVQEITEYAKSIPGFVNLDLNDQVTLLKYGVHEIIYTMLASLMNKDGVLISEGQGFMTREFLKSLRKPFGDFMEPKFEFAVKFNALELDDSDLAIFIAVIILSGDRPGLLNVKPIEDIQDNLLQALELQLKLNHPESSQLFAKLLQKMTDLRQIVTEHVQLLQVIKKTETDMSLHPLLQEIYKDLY

[2] = Solubility of compound in PBS buffer pH 7.4 with 1% DMSO measured after 1 and 24 hrs; assay type: physicochemical; conditions: PBS buffer with 1% DMSO

CCCC/C(=C\c1cc(OCc2ccc3nc(C(F)(F)F)cc(OC)c3c2)ccc1OCc1ccc(OC(F)F)cc1)C(=O)O
IC50 ([1]; read-out: IC50): 2.6 µM

CCC/C(=C\c1cc(OCc2ccc3[nH]c(=O)ccc3c2)ccc1OCc1ccc(F)cc1)C(=O)O
IC50 ([1]; read-out: IC50): 6.1 µM

CCCC/C(=C\c1cc(OCc2ccc3nc(C(F)(F)F)cc(OC)c3c2)ccc1OCc1ccc(F)cc1)C(=O)O
IC50 ([1]; read-out: IC50): 2.3 µM

CCC/C(=C\c1cc(OCc2ccc3cccnc3c2)ccc1OCc1ccc(F)cc1)C(=O)O
IC50 ([1]; read-out: IC50): 23.9 µM

CCC/C(=C\c1cc(OCc2ccc3ccccc3n2)ccc1OCc1ccc(F)cc1)C(=O)O
IC50 ([1]; read-out: IC50): 13.1 µM

CCC/C(=C\c1cc(OCc2ccc3ncccc3c2)ccc1OCC1CCN(C)CC1)C(=O)O
IC50 ([1]; read-out: IC50): 15.1 µM

CCCCC(Cc1cc(OCc2ccc3nc(C(F)(F)F)cc(OC)c3c2)ccc1OCc1ccc(C(F)(F)F)cc1)C(=O)O (configuration not stated)
IC50 [1]: Not Active

COc1cc(C(F)(F)F)nc2ccc(COc3ccc(OCc4ccc(F)cc4)c(/C=C(\C)C(=O)O)c3)cc12
IC50 ([1]; read-out: IC50): 9.4 µM

CCC/C(=C\c1cc(OCc2ccc3c(ccc[n+]3[O-])c2)ccc1OCc1ccc(F)cc1)C(=O)O
IC50 ([1]; read-out: IC50): 6.1 µM

CCC/C(=C\c1cc(OCc2ccc3nc(C(F)(F)F)cc(OC)c3c2)ccc1OCc1cccc(F)c1)C(=O)O
IC50 ([1]; read-out: IC50): 3.9 µM

COc1cc(C(F)(F)F)nc2ccc(COc3ccc(OCc4ccc(F)cc4)c(/C=C(\CC4CC4)C(=O)O)c3)cc12
IC50 ([1]; read-out: IC50): 8.4 µM

CCC/C(=C\c1cc(OCc2ccc3[nH]ccc3c2)ccc1OCc1ccc(F)cc1)C(=O)O
IC50 [1]: Not Active

CCCC/C(=C\c1cc(OCc2ccc3nc(C(F)(F)F)cc(OC)c3c2)ccc1OCc1ccc(C(F)(F)F)cc1)C(=O)O
solubility at 24 h [2]: 50 to 75 µM (≈ 31.7 to 47.5 µg/mL)

CCC/C(=C\c1cc(OCc2ccc3nc(C(F)(F)F)cc(OC)c3c2)ccc1OCCN1CCNCC1)C(=O)O
IC50 ([1]; read-out: IC50): 9.6 µM

CCC/C(=C\c1cc(OCc2ccc3nc(C(F)(F)F)cc(OC)c3c2)ccc1OCc1ccccc1F)C(=O)O
IC50 ([1]; read-out: IC50): 3.5 µM

CCC/C(=C\c1cc(OCc2ccc3nc(C)ccc3c2)ccc1OCc1ccc(F)cc1)C(=O)O
IC50 ([1]; read-out: IC50): 4.2 µM

COc1cc(C(F)(F)F)nc2ccc(COc3ccc(OCc4ccc(F)cc4)c(/C=C(\F)C(=O)O)c3)cc12
IC50 [1]: Not Active

CCC/C(=C\c1cc(OC)ccc1OCc1ccc2nc(C(F)(F)F)cc(OC)c2c1)C(=O)O
IC50 [1]: Not Active

COc1cc(C(F)(F)F)nc2ccc(COc3ccc(OCc4ccc(F)cc4)c(/C=C/C(=O)O)c3)cc12
IC50 ([1]; read-out: IC50): 11 µM

CCCC/C(=C\c1cc(OCc2cn(Cc3ccc(C(=O)O)cc3)nn2)ccc1OCc1ccc(C(F)(F)F)cc1)C(=O)O
IC50 [1]: Not Active

COc1cc(C(F)(F)F)nc2ccc(COc3ccc(OCC4CCN(C)CC4)c(/C=C(\CCC4CC4)C(=O)O)c3)cc12
IC50 ([1]; read-out: IC50): 7.5 µM

CCC/C(=C\c1cc(OCc2ccc(N(C)C)cc2)ccc1OCc1ccc(F)cc1)C(=O)O
IC50 [1]: Not Active

CCC/C(=C\c1cc(OCc2ccc3ncccc3c2)ccc1OCc1ccc(F)cc1)C(=O)O
IC50 ([1]; read-out: IC50): 5 µM

CCCC/C(=C\c1cc(OCc2ccc3nc(C(F)(F)F)cc(OC)c3c2)ccc1OCc1ccc(OC(F)(F)F)cc1)C(=O)O
IC50 ([1]; read-out: IC50): 1.9 µM

CCC/C(=C\c1cc(OCc2ccc3nc(C(F)(F)F)cc(OC)c3c2)ccc1OCc1ccccc1)C(=O)O
IC50 ([1]; read-out: IC50): 7.2 µM

CCC/C(=C\c1cc(OCc2ccc3nc(C(F)(F)F)cc(OC)c3c2)ccc1OCc1ccncc1)C(=O)O
IC50 ([1]; read-out: IC50): 4.7 µM

CCC/C(=C\c1cc(OCc2ccc3nc(C(F)(F)F)cc(OC)c3c2)ccc1NC(=O)c1ccc(F)cc1)C(=O)O
IC50 ([1]; read-out: IC50): 9.5 µM

CCCn1c(C(=O)O)cc2c(OC)ccc(OCc3ccc4nc(C(F)(F)F)cc(OC)c4c3)c21
IC50 ([1]; read-out: IC50): 3.9 µM

CC/C(=C\c1cc(OCc2ccc3nc(C(F)(F)F)cc(OC)c3c2)ccc1OCc1ccc(F)cc1)C(=O)O
IC50 ([1]; read-out: IC50): 5.7 µM

CCC/C(=C\c1cc(OCc2ccc3ccccc3c2)ccc1OCc1ccc(F)cc1)C(=O)O
IC50 ([1]; read-out: IC50): 15.8 µM

CCC/C(=C\c1cc(OCc2ccc3nc(C(F)(F)F)cc(OC)c3c2)ccc1OCc1ccc(F)cc1)C(=O)O
IC50 ([1]; read-out: IC50): 3.2 µM

CCC/C(=C\c1cc(OCc2ccc3nc(C(F)(F)F)cc(OC)c3c2)ccc1OCC1CCNCC1)C(=O)O
IC50 [1]: Not Active
